How the values were obtained:
Assay type in all cases: in vivo
[1] = tested on: ragweed (common ragweed, Ambrosia artemisiifolia); assay: Test C postemergence, ragweed; conditions: for Ragweed plant response rating: visual injury, 0 to 100 scale (0 no effect, 100 complete control); for Plant response rating (0 to 100 scale), Ragweed: 0 is no effect, 100 is complete control
Summary of the method: (§1)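 Greenhouse pot test. Compounds in a non-phytotoxic solvent with surfactant were applied to a loam–sand soil mix either preemergence as a directed spray or postemergence to plants at the one- to two-leaf stage; 0–100 visual ratings followed after 10 or 12 days.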

kochia (Bassia scoparia) = assay: Test C preemergence, kochia; conditions: 0 is no effect, 100 is complete control
Summary of the method: as §1

[2] = tested on: goosegrass (Eleusine indica); assay: Test C postemergence, goosegrass; conditions: for Goosegrass plant response rating: visual injury, 0 to 100 scale (0 no effect, 100 complete control); for Plant response rating (0 to 100 scale), Goosegrass: 0 is no effect, 100 is complete control
Summary of the method: as §1

[3] = tested on: oat, wild (wild oat, Avena fatua); assay: Test C postemergence, wild oat; conditions: for Oat, Wild plant response rating: visual injury, 0 to 100 scale (0 no effect, 100 complete control); for Plant response rating (0 to 100 scale), Oat, Wild: 0 is no effect, 100 is complete control
[4] = tested on: wheat (Triticum aestivum); assay: Test C preemergence, wheat; conditions: 0 is no effect, 100 is complete control
[5] = tested on: foxtail, giant (giant foxtail, Setaria faberi); assay: Test C postemergence, giant foxtail; conditions: for Foxtail, Giant plant response rating: visual injury, 0 to 100 scale (0 no effect, 100 complete control); for Plant response rating (0 to 100 scale), Foxtail, Giant: 0 is no effect, 100 is complete control
[6] = tested on: goosegrass (Eleusine indica); assay: Test C preemergence, goosegrass; conditions: 0 is no effect, 100 is complete control
Summary of the method: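 Corn, ragweed and goosegrass were sown in loam/sand and given a preemergence directed soil spray of compounds in a non-phytotoxic solvent with surfactant. Galium was sprayed postemergence at 2–10 cm height, one- to two-leaf stage. After 10 or 12 days in a greenhouse, injury was rated visually against untreated controls on a 0 (no effect) to 100 (complete control) scale.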

[7] = tested on: pigweed, palmer (palmer amaranth, Amaranthus palmeri); assay: Test C preemergence, palmer amaranth; conditions: 0 is no effect, 100 is complete control
Summary of the method: as §1

| Compound | Ragweed plant response rating ([1]; 31 g ai/ha Postemergence) | Plant response rating (0 to 100 scale), Ragweed ([1]; 125 g ai/ha Postemergence) | Plant response rating (0 to 100 scale), Kochia (kochia (Bassia scoparia); 31 g ai/ha Preemergence) | Plant response rating (0 to 100 scale), Kochia (kochia (Bassia scoparia); 125 g ai/ha Preemergence) | Goosegrass plant response rating ([2]; 31 g ai/ha Postemergence) | Plant response rating (0 to 100 scale), Goosegrass ([2]; 125 g ai/ha Postemergence) | Oat, Wild plant response rating ([3]; 31 g ai/ha Postemergence) | Plant response rating (0 to 100 scale), Oat, Wild ([3]; 125 g ai/ha Postemergence) | Plant response rating (0 to 100 scale), Wheat ([4]; 31 g ai/ha Preemergence) | Plant response rating (0 to 100 scale), Wheat ([4]; 125 g ai/ha Preemergence) | Foxtail, Giant plant response rating ([5]; 31 g ai/ha Postemergence) | Plant response rating (0 to 100 scale), Foxtail, Giant ([5]; 125 g ai/ha Postemergence) | Plant response rating (0 to 100 scale), Goosegrass ([6]; 31 g ai/ha Preemergence) | Plant response rating (0 to 100 scale), Goosegrass ([6]; 125 g ai/ha Preemergence) | Plant response rating (0 to 100 scale), Pigweed, Palmer ([7]; 31 g ai/ha Preemergence) | Plant response rating (0 to 100 scale), Pigweed, Palmer ([7]; 125 g ai/ha Preemergence) | Ragweed plant response rating ([1]; 125 g ai/ha Postemergence) | Goosegrass plant response rating ([2]; 125 g ai/ha Postemergence) | Oat, Wild plant response rating ([3]; 125 g ai/ha Postemergence) | Foxtail, Giant plant response rating ([5]; 125 g ai/ha Postemergence) |
| --- | --- | --- | --- | --- | --- | --- | --- | --- | --- | --- | --- | --- | --- | --- | --- | --- | --- | --- | --- | --- |
| Cc1cc(C)c(N2CCC(O)C2=O)cc1NS(=O)(=O)C(F)(F)F (stereo not shown) [Compound 14] | 60 | 80 | 50 | 100 | 60 | 90 | 30 | 60 | 50 | 100 | 20 | 90 | 90 | 100 | 90 | 100 |  |  |  |  |
| CC(=O)N(c1cc(N2CCC(OC3CC3)C2=O)c(C)cc1Cl)S(=O)(=O)C(F)(F)F (stereo not shown) [Compound 38] | 80 |  | 100 | 100 | 30 | 90 | 50 | 60 | 40 | 90 | 50 | 90 | 100 | 100 | 90 | 100 | 90 |  |  |  |
| Cc1c(N2CCC(OC3CCC3)C2=O)cc(N(COC(=O)C(C)(C)C)S(=O)(=O)C(F)(F)F)c(C)c1F (stereo not shown) [Compound 28] | 80 |  | 20 | 90 | 30 | 70 | 20 | 30 | 20 | 30 | 30 | 70 | 70 | 100 | 30 | 80 | 80 |  |  |  |
| Cc1cc(C)c(N(COC(=O)C(C)(C)C)S(=O)(=O)C(F)(F)F)cc1N1CCC(OCC2CC(F)(F)C2)C1=O (stereo not shown) [Compound 55] | 50 |  | 0 | 10 | 40 |  | 20 |  | 10 | 40 | 30 |  | 10 | 100 | 0 | 30 | 80 | 90 | 30 | 70 |
| Cc1c(NS(=O)(=O)C(F)(F)F)cc(N2CCCC(OC3CC3)C2=O)c(C)c1F (stereo not shown) [Compound 35] | 60 |  | 20 | 80 | 70 | 90 | 40 | 70 | 20 | 100 | 40 | 90 | 100 | 100 | 100 | 100 | 90 |  |  |  |
| Cc1c(NS(=O)(=O)C(F)(F)F)cc(N2CCC(OC3CC3)C2=O)c(C)c1C (stereo not shown) [Compound 47] | 60 |  | 70 | 100 | 50 |  | 10 |  | 90 | 100 | 70 |  | 100 | 100 | 100 | 100 | 80 | 90 | 60 | 90 |
| Cc1cc(C)c(N2CCC(OCC3CC3)C2=O)cc1NS(=O)(=O)C(F)(F)F (stereo not shown) [Compound 22] | 60 | 80 | 90 | 100 | 70 | 90 | 20 | 40 | 90 | 100 | 20 | 60 | 100 | 100 | 100 | 100 |  |  |  |  |
| Cc1cc(C)c(N2CCC(OC3CC3)C2=O)cc1NS(=O)(=O)C(F)(F)F (single isomer, unassigned) [Compound 30] | 90 |  | 90 | 100 | 80 | 90 | 50 | 80 | 90 | 100 | 50 | 80 | 90 | 100 | 100 | 100 | 90 |  |  |  |
| C#CCO/N=C1\CCN(c2cc(NS(=O)(=O)C(F)(F)F)c(C)cc2C)C1=O [Compound 13, N-[2,4-dimethyl-5-[2-oxo-3-[(2-propyn-1-yloxy)imino]-1-pyrrolidinyl]phenyl]-1,1,1-trifluoromethanesulfonamide] | 80 | 90 | 100 | 100 | 70 | 100 | 90 | 90 | 90 | 100 | 60 | 90 | 90 | 100 | 100 | 100 |  |  |  |  |
| Cc1cc(C)c(N2CC/C(=N\O)C2=O)cc1NS(=O)(=O)C(F)(F)F [Compound 10, 1,1,1-trifluoro-N-[5-[3-(hydroxyimino)-2-oxo-1-pyrrolidinyl]-2,4-dimethylphenyl]methanesulfonamide] | 50 | 50 | 90 | 100 | 90 | 90 | 80 | 80 | 90 | 100 | 40 | 90 | 80 | 100 | 50 | 100 |  |  |  |  |
| Cc1cc(C)c(N(COC(=O)C(C)(C)C)S(=O)(=O)C(F)(F)F)cc1N1CCC(OCC2CCC2)C1=O (stereo not shown) [Compound 56] | 20 |  | 0 | 70 | 0 |  | 10 |  | 0 | 0 | 10 |  | 10 | 90 | 10 | 90 | 60 | 60 | 10 | 40 |
| Cc1c(NS(=O)(=O)C(F)(F)F)cc(N2CCC(OCC3CCC3)C2=O)c(C)c1F (stereo not shown) [Compound 64] | 30 |  | 70 | 90 | 30 |  | 0 |  | 20 | 70 | 0 |  | 70 | 100 | 100 | 100 | 70 | 70 | 10 | 20 |
| Cc1cc(C)c(N2CCC(OCC3CCC3(F)F)C2=O)cc1NS(=O)(=O)C(F)(F)F (stereo not shown) [Compound 52] | 40 |  | 70 | 100 | 0 |  | 10 |  | 90 | 100 | 0 |  | 80 | 100 | 70 | 100 | 70 | 70 | 60 | 50 |
